Measured values: patent EP4775589A1, “PHARMACEUTICAL COMPOSITION COMPRISING A PEPTIDE OR A COMBINATION OF PEPTIDES AGONISTIC TO THE MAS, AT1 AND AT2 RECEPTORS” (Pontificia Universidad Católica de Chile, priority 2023, dated 2025)
Where a SMILES comes first, the peptide text is derived from it. [ ]: non-standard residue; d: D form.

Tested on: aortic rings pre-contracted with phenylephrine
Design: species or system Wistar Kyoto rats
Description: Ten-week-old male Wistar Kyoto rats were anesthetized with ketamine (35 mg/kg) and xylazine (7 mg/kg) administered intraperitoneally. The aortas were removed, dissected from the extravascular connective tissue, and cut into 3 mm long rings in fresh Krebs buffer pH 7.4 (KRB, 120 mM NaCl, 25 mM NaHCO3, 5 mM glucose, 4.8 mM KCI, 2.5 mM CaCl2, 1.2 mM MgSO4, […], and 1.2 mM KH2PO4) freshly bubbled with 5% CO2 in air. They were then mounted on a wire myograph (DMT 620M) and placed in an organ bath with KRB, pH 7.4 at 37°C with constant bubbling and equilibrated for 30 min at a tension of 1.5 g. The vasodilator response of ^DH^DF^DP^DH^DI^DY^DV^DR^DD^LD^LR^LV^LY^LI^LH^LP (SEQ ID NO: 1), which corresponds to a fusion of the angiotensin-(1-9) retro-enantio peptide (D-amino acids, N-terminal to C-terminal direction: ^DH^DF^DP^DH^DI^DY^DV^DR^DD (SEQ ID NO: 2)) and the angiotensin-(1-7) peptide (L-amino acids, N-terminal to C-terminal direction: ^LD^LR^LV^LY^LI^LH^LP (SEQ ID NO: 3) were evaluated in dose-response curves [10^-18 to 10^-4 M] to these molecules in baths with aortic rings pre-contracted with phenylephrine 10^-7 M. Carbacol (10^-6-10^-4 M) was used as a relaxation control. The peptides were added in cumulative concentrations to the baths when the vasoconstrictor response to phenylephrine reached its maximum level. […]

EC50 [nM] | Compound
0.00509 | CC[C@@H](C)[C@@H](NC(=O)[C@@H](Cc1c[nH]cn1)NC(=O)[C@H]1CCCN1C(=O)[C@@H](Cc1ccccc1)NC(=O)[C@H](N)Cc1c[nH]cn1)C(=O)N[C@H](Cc1ccc(O)cc1)C(=O)N[C@@H](C(=O)N[C@H](CCCNC(=N)N)C(=O)N[C@H](CC(=O)O)C(=O)N[C@@H](CC(=O)O)C(=O)N[C@@H](CCCNC(=N)N)C(=O)N[C@H](C(=O)N[C@@H](Cc1ccc(O)cc1)C(=O)N[C@H](C(=O)N[C@@H](Cc1c[nH]cn1)C(=O)N1CCC[C@H]1C(=O)O)[C@@H](C)CC)C(C)C)C(C)C [HP16, ^DH^DF^DP^DH^DI^DY^DV^DR^DD^LD^LR^LV^LY^LI^LH^LP]
0.0767 | CC[C@@H](C)[C@@H](NC(=O)[C@@H](Cc1c[nH]cn1)NC(=O)[C@H]1CCCN1C(=O)[C@@H](Cc1ccccc1)NC(=O)[C@H](N)Cc1c[nH]cn1)C(=O)N[C@H](Cc1ccc(O)cc1)C(=O)N[C@@H](C(=O)N[C@H](CCCNC(=N)N)C(=O)N[C@H](CC(=O)O)C(=O)O)C(C)C [RI-Ang-(1-9), ^DH^DF^DP^DH^DI^DY^DV^DR^DD] (H-[dH][dF][dP][dH][dI][dY][dV][dR][dD]-OH)
